Measurements: ChEMBL document CHEMBL1144455, “A small molecule-kinase interaction map for clinical kinase inhibitors” (Nat Biotechnol, 2005)

Experiments:
[1] = target: T1, Serine/threonine-protein kinase 36 (Homo sapiens, UniProt Q9NRP7)
T1 sequence (Q9NRP7 whole entry): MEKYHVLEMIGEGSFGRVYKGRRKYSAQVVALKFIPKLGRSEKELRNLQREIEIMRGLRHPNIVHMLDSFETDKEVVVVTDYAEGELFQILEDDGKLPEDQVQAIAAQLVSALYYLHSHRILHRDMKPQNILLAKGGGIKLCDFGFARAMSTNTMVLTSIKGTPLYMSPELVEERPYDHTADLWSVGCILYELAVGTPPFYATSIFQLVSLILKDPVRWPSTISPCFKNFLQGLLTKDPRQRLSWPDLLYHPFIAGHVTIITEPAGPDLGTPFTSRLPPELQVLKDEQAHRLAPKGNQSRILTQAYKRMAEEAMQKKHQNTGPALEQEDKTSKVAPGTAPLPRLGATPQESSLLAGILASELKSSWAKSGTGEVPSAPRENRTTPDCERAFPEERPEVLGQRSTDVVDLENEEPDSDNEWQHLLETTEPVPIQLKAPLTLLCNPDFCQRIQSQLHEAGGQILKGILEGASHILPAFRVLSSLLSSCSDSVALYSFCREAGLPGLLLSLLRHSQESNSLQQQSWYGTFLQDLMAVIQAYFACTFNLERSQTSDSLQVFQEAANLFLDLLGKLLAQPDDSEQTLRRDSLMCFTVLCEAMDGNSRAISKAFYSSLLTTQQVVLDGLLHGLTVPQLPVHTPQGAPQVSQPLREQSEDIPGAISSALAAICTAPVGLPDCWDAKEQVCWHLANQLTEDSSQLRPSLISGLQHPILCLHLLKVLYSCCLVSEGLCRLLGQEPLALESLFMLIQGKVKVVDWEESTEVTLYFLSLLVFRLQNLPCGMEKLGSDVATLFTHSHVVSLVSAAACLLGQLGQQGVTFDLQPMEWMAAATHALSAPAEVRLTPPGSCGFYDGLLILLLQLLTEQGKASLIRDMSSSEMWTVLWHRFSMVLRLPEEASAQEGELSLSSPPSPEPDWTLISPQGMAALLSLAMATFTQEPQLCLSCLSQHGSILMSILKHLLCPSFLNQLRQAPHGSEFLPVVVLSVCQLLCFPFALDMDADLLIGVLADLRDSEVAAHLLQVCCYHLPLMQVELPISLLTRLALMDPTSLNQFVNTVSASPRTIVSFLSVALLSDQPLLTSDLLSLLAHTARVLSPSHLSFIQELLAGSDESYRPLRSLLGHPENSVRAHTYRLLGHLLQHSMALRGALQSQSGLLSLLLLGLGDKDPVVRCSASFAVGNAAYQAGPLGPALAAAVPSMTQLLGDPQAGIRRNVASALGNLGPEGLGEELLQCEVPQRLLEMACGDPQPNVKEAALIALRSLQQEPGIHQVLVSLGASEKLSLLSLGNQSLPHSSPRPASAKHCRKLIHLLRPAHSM

[2] = target: Serine/threonine-protein kinase 16 (Homo sapiens, UniProt O75716)
[3] = target: T2, Aurora kinase C (Homo sapiens, UniProt Q9UQB9)
T2 sequence (Q9UQB9 whole entry): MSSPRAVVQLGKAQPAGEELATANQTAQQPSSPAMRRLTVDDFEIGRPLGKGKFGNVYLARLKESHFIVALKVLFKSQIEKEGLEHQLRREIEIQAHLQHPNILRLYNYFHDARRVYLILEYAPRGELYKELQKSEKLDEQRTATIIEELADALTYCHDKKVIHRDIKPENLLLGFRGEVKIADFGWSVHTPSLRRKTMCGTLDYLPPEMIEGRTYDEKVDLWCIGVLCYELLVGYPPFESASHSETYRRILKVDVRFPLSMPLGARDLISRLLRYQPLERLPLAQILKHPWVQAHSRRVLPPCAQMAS

[4] = target: Serine/threonine-protein kinase pim-1 (Homo sapiens, UniProt P11309)
[5] = target: Calcium/calmodulin-dependent protein kinase type II subunit beta (Homo sapiens, UniProt Q13554)
[6] = target: Protein-tyrosine kinase 6 (Homo sapiens, UniProt Q13882)
[7] = target: MAP kinase-interacting serine/threonine-protein kinase 2 (Homo sapiens, UniProt Q9HBH9)

Measured: Kd

Chain of Serine/threonine-protein kinase pim-1 (P11309 whole entry): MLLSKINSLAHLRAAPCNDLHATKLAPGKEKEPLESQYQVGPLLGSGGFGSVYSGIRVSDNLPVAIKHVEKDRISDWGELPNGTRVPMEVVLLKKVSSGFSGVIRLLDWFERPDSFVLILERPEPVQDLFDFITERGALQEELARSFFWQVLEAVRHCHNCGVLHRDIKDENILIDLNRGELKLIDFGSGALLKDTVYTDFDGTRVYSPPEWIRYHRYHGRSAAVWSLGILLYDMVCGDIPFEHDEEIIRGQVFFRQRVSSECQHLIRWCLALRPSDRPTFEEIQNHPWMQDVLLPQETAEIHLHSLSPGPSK
Chain of MAP kinase-interacting serine/threonine-protein kinase 2 (Q9HBH9 whole entry): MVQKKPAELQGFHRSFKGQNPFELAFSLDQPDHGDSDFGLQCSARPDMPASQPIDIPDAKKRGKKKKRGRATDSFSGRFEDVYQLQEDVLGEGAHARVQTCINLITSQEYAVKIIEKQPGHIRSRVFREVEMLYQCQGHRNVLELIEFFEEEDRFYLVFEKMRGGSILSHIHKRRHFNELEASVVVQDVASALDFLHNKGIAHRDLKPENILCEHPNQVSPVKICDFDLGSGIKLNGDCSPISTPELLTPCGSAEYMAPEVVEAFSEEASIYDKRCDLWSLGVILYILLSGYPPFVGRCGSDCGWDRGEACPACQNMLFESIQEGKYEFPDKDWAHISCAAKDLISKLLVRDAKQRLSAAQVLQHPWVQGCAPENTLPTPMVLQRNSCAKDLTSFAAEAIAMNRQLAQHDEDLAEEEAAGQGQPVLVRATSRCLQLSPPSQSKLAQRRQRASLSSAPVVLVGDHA
Chain of Protein-tyrosine kinase 6 (Q13882 whole entry): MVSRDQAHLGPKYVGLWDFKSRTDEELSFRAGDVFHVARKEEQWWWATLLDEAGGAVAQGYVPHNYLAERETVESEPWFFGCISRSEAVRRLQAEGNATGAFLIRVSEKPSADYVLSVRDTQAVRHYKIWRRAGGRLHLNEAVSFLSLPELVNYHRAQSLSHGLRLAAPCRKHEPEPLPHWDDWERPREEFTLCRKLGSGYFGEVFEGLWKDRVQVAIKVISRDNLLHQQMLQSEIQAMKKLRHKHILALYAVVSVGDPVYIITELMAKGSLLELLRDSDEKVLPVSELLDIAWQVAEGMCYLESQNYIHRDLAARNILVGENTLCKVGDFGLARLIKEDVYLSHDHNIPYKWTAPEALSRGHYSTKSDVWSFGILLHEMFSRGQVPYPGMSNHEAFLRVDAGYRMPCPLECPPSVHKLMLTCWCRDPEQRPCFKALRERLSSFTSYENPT
Chain of Serine/threonine-protein kinase 16 (O75716 whole entry): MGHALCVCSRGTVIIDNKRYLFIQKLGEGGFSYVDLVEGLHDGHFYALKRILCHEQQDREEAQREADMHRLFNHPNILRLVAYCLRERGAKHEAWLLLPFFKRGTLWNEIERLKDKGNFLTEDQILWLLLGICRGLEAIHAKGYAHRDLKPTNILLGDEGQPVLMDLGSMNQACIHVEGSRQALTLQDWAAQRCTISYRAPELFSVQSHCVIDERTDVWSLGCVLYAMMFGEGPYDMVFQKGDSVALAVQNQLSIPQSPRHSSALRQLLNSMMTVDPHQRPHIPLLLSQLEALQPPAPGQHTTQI
Chain of Calcium/calmodulin-dependent protein kinase type II subunit beta (Q13554 whole entry): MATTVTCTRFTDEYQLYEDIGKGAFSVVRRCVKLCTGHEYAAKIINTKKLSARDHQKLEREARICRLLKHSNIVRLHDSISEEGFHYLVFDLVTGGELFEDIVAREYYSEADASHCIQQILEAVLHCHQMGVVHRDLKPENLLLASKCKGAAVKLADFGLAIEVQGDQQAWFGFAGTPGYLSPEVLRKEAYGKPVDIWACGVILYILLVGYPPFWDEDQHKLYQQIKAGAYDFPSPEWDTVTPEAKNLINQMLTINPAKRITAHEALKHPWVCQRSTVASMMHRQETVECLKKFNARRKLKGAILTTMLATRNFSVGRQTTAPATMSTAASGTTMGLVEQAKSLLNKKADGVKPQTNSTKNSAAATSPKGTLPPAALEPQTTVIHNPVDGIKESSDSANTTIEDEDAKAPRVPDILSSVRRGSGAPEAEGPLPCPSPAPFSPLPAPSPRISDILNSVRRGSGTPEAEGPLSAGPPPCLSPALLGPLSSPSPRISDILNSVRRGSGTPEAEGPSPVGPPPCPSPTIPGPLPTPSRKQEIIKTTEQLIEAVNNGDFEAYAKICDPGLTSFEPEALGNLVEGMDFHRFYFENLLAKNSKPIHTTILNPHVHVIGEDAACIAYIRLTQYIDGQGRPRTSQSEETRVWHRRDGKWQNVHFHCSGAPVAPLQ

C#Cc1cccc(Nc2ncnc3cc(OCCOC)c(OCCOC)cc23)c1 [ERLOTINIB]
not listed: [7]
Not Active: all other assays above

Cc1ccc(NC(=O)c2ccc(CN3CCN(C)CC3)cc2)cc1Nc1nccc(-c2cccnc2)n1 [IMATINIB]
Not Active: all assays above

O=c1ncn2nc(Sc3ccc(F)cc3F)ccc2c1-c1c(Cl)cccc1Cl [NEFLAMAPIMOD]
Not Active: all assays above

CCOc1cc2ncc(C#N)c(Nc3ccc(F)c(Cl)c3)c2cc1NC(=O)/C=C/CN(C)C [PELITINIB]
not listed: [1]
Not Active: all other assays above

Oc1ccc(-c2nc(-c3ccc(F)cc3)c(-c3ccncc3)[nH]2)cc1 [SB-202190]
not listed: [1] | [6]
Not Active: all other assays above

C[S+]([O-])c1ccc(-c2nc(-c3ccc(F)cc3)c(-c3ccncc3)[nH]2)cc1 (stereo not drawn) [SB-203580]
not listed: [1] | [6]
Not Active: all other assays above

CC[C@H](CO)Nc1nc(NCc2ccccc2)c2ncn(C(C)C)c2n1 [SELICICLIB]
Not Active: all assays above

Oc1c2ccccc2c2c3c(cccc13)N=N2 [SP-600125]
Not Active: [1] | [4] | [6]

COc1cc2c(N3CCN(C(=O)Nc4ccc(OC(C)C)cc4)CC3)ncnc2cc1OCCCN1CCCCC1 [TANDUTINIB]
Not Active: all assays above
